Test results as given in PubChem BioAssay AID248 (DTP/NCI, 2004).
“And” between values parts separate entries of the source, which are not always exact repeats. Equal values may be shown once. Toxic doses and inconclusive results are not listed. Cut-off read from the data, not from the text of the source: active = T/C of 150% or more; inactive = T/C below 125%.

System: L1210 leukemia ip in BDF1 mice, survival T/C
Experiment: NCI In Vivo Anticancer Drug Screen. Data for tumor model L1210 Leukemia (intraperitoneal) in B6D2F1 (BDF1) mice
Details: endpoint: mean survival time, higher = longer survival
In short: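 Tumor cells were implanted, animals were treated, and survival was followed. The result divides the treated measurement by the vehicle-control measurement.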

[1] = dose: 100.0 mg/kg/injection, schedule: Q01DX001 (ip), vehicle: saline
[2] = dose: 200.0 mg/kg/injection, schedule: Q01DX001 (ip), vehicle: saline
[3] = dose: 400.0 mg/kg/injection, schedule: Q01DX001 (ip), vehicle: saline
[4] = dose: 100.0 mg/kg/injection, schedule: Q01DX001 (ip), vehicle: Klucel (hydroxypropylcellulose) (HPC)
[5] = dose: 200.0 mg/kg/injection, schedule: Q01DX001 (ip), vehicle: Klucel (hydroxypropylcellulose) (HPC)
[6] = dose: 100.0 mg/kg/injection, schedule: Q04DX003 (ip), vehicle: saline
[7] = dose: 100.0 mg/kg/injection, schedule: Q04DX003 (ip), vehicle: Klucel (hydroxypropylcellulose) (HPC)
[8] = dose: 200.0 mg/kg/injection, schedule: Q04DX003 (ip), vehicle: Klucel (hydroxypropylcellulose) (HPC)

Measured: T/C

Cc1nc(N)sc1S(=O)(=O)F
inactive: [1] 96 % of control | dose: 100.0 mg/kg/injection, schedule: Q04DX003 (ip), vehicle: saline with Tween-80 89 % of control | [2] 97 % of control | dose: 200.0 mg/kg/injection, schedule: Q04DX003 (ip), vehicle: saline with Tween-80 97 % of control | [3] 102 % of control | dose: 400.0 mg/kg/injection, schedule: Q04DX003 (ip), vehicle: saline with Tween-80 97 % of control

CCCCCn1cnc2c(=O)[nH]c(N)nc21
inactive: dose: 50.0 mg/kg/injection, schedule: Q01DX001 (ip), vehicle: Klucel (hydroxypropylcellulose) (HPC) 105 % of control | [4] 103 % of control | [5] 106 % of control

COc1cc(NC(C)CCCN)c2nc(OCc3ccccc3)ccc2c1 (configuration not stated)
inactive: dose: 6.25 mg/kg/injection, schedule: Q01DX009 (ip), vehicle: saline with Tween-80 96 % of control | dose: 6.25 mg/kg/injection, schedule: Q04DX003 (ip), vehicle: saline with Tween-80 96 % of control | dose: 12.5 mg/kg/injection, schedule: Q01DX009 (ip), vehicle: saline with Tween-80 98 % of control | dose: 12.5 mg/kg/injection, schedule: Q04DX003 (ip), vehicle: saline with Tween-80 93 % of control | dose: 25.0 mg/kg/injection, schedule: Q01DX009 (ip), vehicle: saline with Tween-80 97 % of control | dose: 25.0 mg/kg/injection, schedule: Q04DX003 (ip), vehicle: saline with Tween-80 99 % of control

O=C1NC(=O)C(c2ccccc2)(C2CCC2)N1 (configuration not stated)
inactive: dose: 100.0 mg/kg/injection, schedule: Q01DX009 (ip), vehicle: saline with Tween-80 93 % of control | dose: 200.0 mg/kg/injection, schedule: Q01DX009 (ip), vehicle: saline with Tween-80 103 % of control | dose: 400.0 mg/kg/injection, schedule: Q01DX009 (ip), vehicle: saline with Tween-80 95 % of control

CCCCCCCCCCCC[N+](C)(C)Cc1ccccc1
inactive: dose: 1.56 mg/kg/injection, schedule: Q01DX009 (ip), vehicle: saline 106 % of control | dose: 3.12 mg/kg/injection, schedule: Q01DX009 (ip), vehicle: saline 111 % of control | dose: 3.12 mg/kg/injection, schedule: Q04DX003 (ip), vehicle: saline 98 % of control | dose: 6.25 mg/kg/injection, schedule: Q04DX003 (ip), vehicle: saline 104 % of control | dose: 12.5 mg/kg/injection, schedule: Q01DX001 (ip), vehicle: saline 103 % of control

O=c1cc(C[n+]2ccccc2)[nH]c(=O)[nH]1
inactive: [6] 89 % of control | dose: 200.0 mg/kg/injection, schedule: Q04DX003 (ip), vehicle: saline 89 % of control

CCOC(=O)NCC(CCN(C)C)(c1cccc2ccccc12)C(C)CC (configuration not stated)
inactive: dose: 25.0 mg/kg/injection, schedule: Q01DX009 (ip), vehicle: Klucel (hydroxypropylcellulose) (HPC) 94 % of control | dose: 50.0 mg/kg/injection, schedule: Q01DX009 (ip), vehicle: Klucel (hydroxypropylcellulose) (HPC) 94 % of control | dose: 50.0 mg/kg/injection, schedule: Q04DX003 (ip), vehicle: Klucel (hydroxypropylcellulose) (HPC) 105 % of control | [7] 103 % of control

CCOC(=O)C1CCCCCC1=O (configuration not stated)
inactive: dose: 50.0 mg/kg/injection, schedule: Q01DX009 (ip), vehicle: saline 110 % of control | dose: 100.0 mg/kg/injection, schedule: Q01DX009 (ip), vehicle: saline 98 % of control | dose: 100.0 mg/kg/injection, schedule: Q04DX003 (ip), vehicle: alcohol 102 % of control | dose: 200.0 mg/kg/injection, schedule: Q01DX009 (ip), vehicle: saline 95 % of control | dose: 200.0 mg/kg/injection, schedule: Q04DX003 (ip), vehicle: alcohol 103 % of control | dose: 400.0 mg/kg/injection, schedule: Q04DX003 (ip), vehicle: alcohol 100 % of control

O=P(CCC(F)(F)C(F)(F)C(F)(F)C(F)(F)C(F)(F)C(F)(F)C(F)(F)F)(N1CC1)N1CC1
inactive: dose: 75.0 mg/kg/injection, schedule: Q01DX001 (ip), vehicle: carboxymethylcellulose (CMC) 108 % of control

O=[N+]([O-])c1cc2ccccc2o1
inactive: dose: 50.0 mg/kg/injection, schedule: Q04DX002 (ip), vehicle: Klucel (hydroxypropylcellulose) (HPC) 88 % of control | dose: 100.0 mg/kg/injection, schedule: Q04DX002 (ip), vehicle: Klucel (hydroxypropylcellulose) (HPC) 97 % of control | dose: 200.0 mg/kg/injection, schedule: Q04DX002 (ip), vehicle: Klucel (hydroxypropylcellulose) (HPC) 93 % of control

Cn1c2c(sc1=O)CCC2
inactive: dose: 50.0 mg/kg/injection, schedule: Q01DX Z (ip), vehicle: methylcellulose (MC) 102 % of control and 105 % of control | dose: 100.0 mg/kg/injection, schedule: Q01DX001 (ip), vehicle: other 103 % of control | dose: 100.0 mg/kg/injection, schedule: Q01DX Z (ip), vehicle: methylcellulose (MC) 111 % of control | [7] 99 % of control | dose: 200.0 mg/kg/injection, schedule: Q01DX001 (ip), vehicle: other 111 % of control | dose: 200.0 mg/kg/injection, schedule: Q01DX Z (ip), vehicle: methylcellulose (MC) 93 % of control | [8] 100 % of control | dose: 400.0 mg/kg/injection, schedule: Q01DX001 (ip), vehicle: other 105 % of control

N#CCCN1CCC(=O)c2ccccc21
inactive: [1] 101 % of control | [2] 98 % of control | [3] 101 % of control

CSc1ncnc2c1ncn2C1OC(CCc2ccccc2)C(O)C1O (configuration not stated)
inactive: [4] 100 % of control | [5] 96 % of control | dose: 400.0 mg/kg/injection, schedule: Q01DX001 (ip), vehicle: Klucel (hydroxypropylcellulose) (HPC) 98 % of control

ON=C1CCSCC1
inactive: [1] 107 % of control | [2] 98 % of control | [3] 108 % of control

CCCCCCCCCCCCCCCCNS(=O)(=O)c1ccc(N2CCOCC2)c(N)c1
inactive: [7] 93 % of control | [8] 98 % of control | dose: 400.0 mg/kg/injection, schedule: Q04DX003 (ip), vehicle: Klucel (hydroxypropylcellulose) (HPC) 94 % of control

NNC12CCC(c3ccccc31)c1ccccc12
inactive: dose: 100.0 mg/kg/injection, schedule: Q04DX003 (ip), vehicle: saline sonified 96 % of control | dose: 200.0 mg/kg/injection, schedule: Q04DX003 (ip), vehicle: saline sonified 101 % of control

Nc1ncnc2c1ncn2C1C=CC(CO)O1 (configuration not stated)
inactive: [1] 102 % of control | [2] 100 % of control | [3] 102 % of control

O=Cc1cc2ccccc2[nH]1
inactive: dose: 100.0 mg/kg/injection, schedule: Q04DX002 (ip), vehicle: saline with Tween-80 105 % of control | dose: 200.0 mg/kg/injection, schedule: Q04DX002 (ip), vehicle: saline with Tween-80 102 % of control | dose: 400.0 mg/kg/injection, schedule: Q04DX002 (ip), vehicle: saline with Tween-80 102 % of control

CCN(CC)CCNc1ncnc2[nH]ncc12
inactive: dose: 25.0 mg/kg/injection, schedule: Q04DX003 (ip), vehicle: saline 89 % of control | dose: 50.0 mg/kg/injection, schedule: Q04DX003 (ip), vehicle: saline 86 % of control | [6] 103 % of control and 89 % of control

Cn1c(=O)n(C)c2nccnc21
inactive: dose: 12.5 mg/kg/injection, schedule: Q04DX002 (ip), vehicle: saline 108 % of control | dose: 25.0 mg/kg/injection, schedule: Q04DX002 (ip), vehicle: saline 105 % of control | dose: 50.0 mg/kg/injection, schedule: Q04DX002 (ip), vehicle: saline 94 % of control

CS(=O)c1ccc2c(c1)-c1ccccc1C2=O (configuration not stated)
inactive: dose: 50.0 mg/kg/injection, schedule: Q01DX001 (ip), vehicle: carboxymethylcellulose (CMC) 95 % of control | dose: 100.0 mg/kg/injection, schedule: Q01DX001 (ip), vehicle: carboxymethylcellulose (CMC) 101 % of control | dose: 200.0 mg/kg/injection, schedule: Q01DX001 (ip), vehicle: carboxymethylcellulose (CMC) 95 % of control | dose: 400.0 mg/kg/injection, schedule: Q01DX001 (ip), vehicle: carboxymethylcellulose (CMC) 101 % of control
